Experimental data: patent US8889671B2, “Compounds and methods for treating bacterial infections” (AstraZeneca AB, priority 2013, dated 2014)
In brackets after ≈: the same amount, converted by molar mass. Where two headings read alike, the source gives them in different places.

Legend:
Staphylococcus aureus = assay: Susceptibility testing (MIC) Assay 1, broth microdilution; type: cell-based
Streptococcus pneumoniae = assay: as above; type: cell-based
Streptococcus pyogenes = assay: as above; type: cell-based; details: Streptococcus pyrgenes, in vivo strain, read-out: Spy MIC
Escherichia coli = assay: Susceptibility testing (MIC) Assay 2, broth microdilution; type: cell-based; details: K12, read-out: Eco MIC
Haemophilus influenzae = assay: as above; type: cell-based; details: ATCC 51907, in vivo strain, read-out: Hin MIC
Klebsiella pneumoniae = assay: as above; type: cell-based; details: clinical isolate, mucoid, read-out: Kpn MIC
Pseudomonas aeruginosa = assay: as above; type: cell-based; details: for MIC: PAO1, read-out: Pae MIC
[1] = target: Escherichia coli DNA gyrase A/B tetramer (Escherichia coli (strain K12), UniProt P0AES4+P0AES6); assay: DNA gyrase supercoiling activity fluorescence polarisation assay; type: biochemical; details: 0.3 mM ATP
Summary of the method: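 IC50 derived by nonlinear regression from BODIPY-FL fluorescence anisotropy, read 60 min after quenching with labelled triplex-forming probe (pH 3.5). Reaction: 5 nM gyrase tetramer, 130 micrograms/mL relaxed plasmid, 0.3 mM ATP, 4 mM MgCl2, pH 7.5, typically 30 min at ambient temperature, 5-10 compound concentrations.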

[2] = Staphylococcus aureus, Staphylococcus aureus in vivo strain, MSQS, read-out: Sau(d) MIC
[3] = Staphylococcus aureus, in vivo strain, MRQR, read-out: Sau(e) MIC
[4] = Staphylococcus aureus, serum, read-out: Sau(f) MIC
[5] = in vivo strain (footnote b), read-out: Spn(b) MIC
[6] = in vivo strain (footnote c), read-out: Spn(c) MIC
[7] = ATCC51907, Haemophilus influenzae
[8] = Eco Gyr FP Mean IC50, E. coli DNA gyrase supercoiling

| Compound | MIC (Staphylococcus aureus; [2]) | MIC (Staphylococcus aureus; [3]) | MIC (Staphylococcus aureus; [4]) | MIC (Streptococcus pneumoniae; [5]) | MIC (Streptococcus pneumoniae; [6]) | MIC (Streptococcus pyogenes; Streptococcus pyogenes) | MIC (Escherichia coli) | MIC (Haemophilus influenzae; [7]) | MIC (Klebsiella pneumoniae) | MIC (Pseudomonas aeruginosa) | IC50 [1, 8] | MIC (Staphylococcus aureus; Staphylococcus aureus in vivo strain, MSQS, read-out: Sau(d) MIC) | MIC (Streptococcus pyogenes) | MIC (Haemophilus influenzae) | Pae MIC (Pseudomonas aeruginosa; PAO1) | IC50 ([1]; E. coli DNA gyrase supercoiling, read-out: Eco Gyr FP Mean IC50) |
| --- | --- | --- | --- | --- | --- | --- | --- | --- | --- | --- | --- | --- | --- | --- | --- | --- |
| C[C@@H]1CN2c3c(cc4c(N5C[C@H](CN=[N+]=[N-])OC5=O)noc4c3F)CC3(C(=O)NC(=O)NC3=O)[C@H]2[C@H](C)O1 [Example 44, (2R,4S,4aS)-8-[(5R)-5-(Azidomethyl)-2-oxo-1,3-oxazolidin-3-yl]-11-fluoro-2,4-dimethyl-1,2,4,4a-tetrahydro-2′H,6H-spiro[1,4-oxazino[4,3-a][1,2]oxazolo[4,5-g]quinoline-5,5′-pyrimidine]-2′,4′,6′(1′H,3′H)-trione] | 0.78 µM (≈ 0.412 µg/mL) | 3.1 µM (≈ 1.64 µg/mL) | 3.1 µM (≈ 1.64 µg/mL) | 0.78 µM (≈ 0.412 µg/mL) | 1.6 µM (≈ 0.846 µg/mL) | 0.78 µM (≈ 0.412 µg/mL) | 50 µM (≈ 26.4 µg/mL) | 0.78 µM (≈ 0.412 µg/mL) | > 200 µM | > 200 µM | 530 nM |  |  |  |  |  |
| CSC[C@H]1COC(=O)N1c1noc2c(F)c3c(cc12)CC1(C(=O)NC(=O)NC1=O)[C@H]1[C@H](C)O[C@H](C)CN31 [Example 45] | < 0.2 µM | 0.39 µM (≈ 0.208 µg/mL) | 0.78 µM (≈ 0.416 µg/mL) | 0.39 µM (≈ 0.208 µg/mL) | 0.55 µM (≈ 0.293 µg/mL) | 0.39 µM (≈ 0.208 µg/mL) | 25 µM (≈ 13.3 µg/mL) | 0.39 µM (≈ 0.208 µg/mL) | 200 µM (≈ 107 µg/mL) | > 200 µM | 260 nM |  |  |  |  |  |
| C[C@@H]1CN2c3c(cc4c(N5C(=O)OC[C@@H]5CS(C)(=O)=O)noc4c3F)CC3(C(=O)NC(=O)NC3=O)[C@H]2[C@H](C)O1 [Example 46] | 1.6 µM (≈ 0.905 µg/mL) | 6.2 µM (≈ 3.51 µg/mL) | 1.6 µM (≈ 0.905 µg/mL) | 0.78 µM (≈ 0.441 µg/mL) | 1.6 µM (≈ 0.905 µg/mL) | 0.39 µM (≈ 0.221 µg/mL) | 100 µM (≈ 56.6 µg/mL) | 0.78 µM (≈ 0.441 µg/mL) | > 200 µM | > 200 µM | 170 nM |  |  |  |  |  |
| C[C@@H]1CN2c3c(cc4c(N5C(=O)OC[C@H]5CN=[N+]=[N-])noc4c3F)CC3(C(=O)NC(=O)NC3=O)[C@H]2[C@H](C)O1 [Example 47, (2R,4S,4aS)-8-((R)-4-(Azidomethyl)-2-oxooxazolidin-3-yl)-11-fluoro-2,4-dimethyl-2,4,4a,6-tetrahydro-1H,1′H-spiro[isoxazolo[4,5-g][1,4]oxazino[4,3-a]quinoline-5,5′-pyrimidine]-2′,4′,6′(3′H)-trione] | < 0.2 µM | 0.78 µM (≈ 0.412 µg/mL) | 0.78 µM (≈ 0.412 µg/mL) | 0.39 µM (≈ 0.206 µg/mL) | 0.55 µM (≈ 0.291 µg/mL) | 0.279 µM (≈ 0.147 µg/mL) | 25 µM (≈ 13.2 µg/mL) | 0.78 µM (≈ 0.412 µg/mL) | 200 µM (≈ 106 µg/mL) | > 200 µM | 150 nM |  |  |  |  |  |
| C[C@@H]1CN2c3c(cc4c(N5C(=O)OC[C@@H]5CN=[N+]=[N-])noc4c3F)CC3(C(=O)NC(=O)NC3=O)[C@H]2[C@H](C)O1 [Example 48] |  | 12 µM (≈ 6.34 µg/mL) | 50 µM (≈ 26.4 µg/mL) | 12 µM (≈ 6.34 µg/mL) | 12 µM (≈ 6.34 µg/mL) |  | 200 µM (≈ 106 µg/mL) |  | >200 µM |  |  | 6.2 µM (≈ 3.28 µg/mL) | 6.2 µM (≈ 3.28 µg/mL) | 6.2 µM (≈ 3.28 µg/mL) | >200 µM | > 2100 nM |
| CCOC[C@H]1COC(=O)N1c1noc2c(F)c3c(cc12)CC1(C(=O)NC(=O)NC1=O)[C@H]1[C@H](C)O[C@H](C)CN31 [Example 49, (2R,4S,4aS)-8-[(4S)-4-(Ethoxymethyl)-2-oxo-1,3-oxazolidin-3-yl]-11-fluoro-2,4-dimethyl-1,2,4,4a-tetrahydro-2′H,6H-spiro[1,4-oxazino[4,3-a][1,2]oxazolo[4,5-g]quinoline-5,5′-pyrimidine]-2′,4′,6′(1′H,3′H)-trione] | 0.39 µM (≈ 0.207 µg/mL) | 0.78 µM (≈ 0.415 µg/mL) | 0.78 µM (≈ 0.415 µg/mL) | 0.78 µM (≈ 0.415 µg/mL) | 1.6 µM (≈ 0.85 µg/mL) | 0.78 µM (≈ 0.415 µg/mL) | 50 µM (≈ 26.6 µg/mL) | 1.6 µM (≈ 0.85 µg/mL) | > 200 µM | > 200 µM | 380 nM |  |  |  |  |  |
| COCCOC[C@H]1COC(=O)N1c1noc2c(F)c3c(cc12)CC1(C(=O)NC(=O)NC1=O)[C@H]1[C@H](C)O[C@H](C)CN31 [Example 50, (2R,4S,4aS)-11-Fluoro-8-{(4S)-4-[(2-methoxyethoxy)methyl]-2-oxo-1,3-oxazolidin-3-yl}-2,4-dimethyl-1,2,4,4a-tetrahydro-2′H,6H-spiro[1,4-oxazino[4,3-a][1,2]oxazolo[4,5-g]quinoline-5,5′-pyrimidine]-2′,4′,6′(1′H,3′H)-trione] | 1.6 µM (≈ 0.898 µg/mL) | 3.1 µM (≈ 1.74 µg/mL) | 1.6 µM (≈ 0.898 µg/mL) | 1.6 µM (≈ 0.898 µg/mL) | 1.6 µM (≈ 0.898 µg/mL) | 1.6 µM (≈ 0.898 µg/mL) | 200 µM (≈ 112 µg/mL) | 3.1 µM (≈ 1.74 µg/mL) | > 200 µM | > 200 µM | 200 nM |  |  |  |  |  |
